Assay results reported in patent publication US20250353873A1, “COMPOUNDS AND METHODS FOR MODULATING APOE EXPRESSION” (Ionis Pharmaceuticals, Inc., priority 2024, published 2025).
Strand notation (5' to 3'): a small letter for the sugar, then the base; units joined by * are phosphorothioate-linked, units joined directly phosphodiester-linked; [ ] holds rarer units or linkages, { } end groups; capitals alone tell only the bases. [ms] = mesyl phosphoramidate linkage; e = 2'-O-(2-methoxyethyl) (MOE); k = constrained ethyl (cEt); [5mC] = 5-methylcytosine; d = 2'-deoxy (DNA)

Assays:
[1] = test system: human APOE RNA; assay: Dose-dependent reduction of human APOE RNA in HepG2 cells, electroporation, 20,000 cells per well, average of GAPDH- and PPIA-normalized results (Example 4, Table 12); type: cell-based; details: HepG2, 20,000 cells per well; for IC50: approximately 24 hours
Description: HepG2 cells plated at a density of 20,000 cells per well were treated by electroporation with various concentrations of modified oligonucleotide as specified in the tables below. […] APOE RNA levels were measured using the human primer probe set RTS3073 (described herein above). APOE RNA levels were normalized to human GAPDH, and human PPIA. Human GAPDH was amplified using human primer probe set RTS104 (described herein above). Human PPIA was amplified using human primer probe set mk_cycloA_2nd (described herein above) The average of the GAPDH-normalized results and the PPIA-normalized results are presented in the table below as percent APOE RNA, relative to the amount of APOE RNA in untreated control cells (% UTC). The half maximal inhibitory concentration (IC50) of each modified oligonucleotide was calculated in GraphPad Prism 10 (GraphPad Software, San Diego, CA) and is also presented in the table below.

[2] = test system: human APOE RNA; assay: Dose-dependent inhibition of human APOE RNA in differentiated SH-SY5Y cells, free uptake, 5 days (Example 5); type: cell-based; details: 5 days (Table 14)
Summary of the method: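 APOE RNA, measured by RTS3073 primer probe set and normalized to human PPIA, is reported as % of untreated control cells, with IC50 fitted. Cells were differentiated SH-SY5Y at 10,000/well, given modified oligonucleotide at several concentrations by free uptake for 5 days.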

[3] = test system: human APOE RNA; assay: Activity in APOE C57BL/6NTac-Apoeem7250 knock-in mice, single ICV bolus, 4 weeks (Example 10); type: in vivo; details: single ICV bolus 300 μg, 4 weeks post treatment, normalized to mouse Ppia
Summary of the method: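 Human APOE RNA, quantified by real-time RT-PCR with RTS3073 and normalized to mouse Ppia, was read in cortical brain and spinal cord 4 weeks post dosing. Dosing was a single ICV bolus of 300 μg per knock-in mouse; values are % of PBS-treated animals.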

[4] = test system: human APOE RNA; assay: Activity in APOE C57BL/6NTac-Apoeem7250 knock-in mice, single ICV bolus, 8 weeks (Example 11); type: in vivo; details: single ICV bolus 300 μg, 8 weeks post treatment, normalized to mouse Ppia
Summary of the method: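 Cortical and spinal cord human APOE RNA quantified by RT-qPCR 8 weeks after a single 300 μg ICV dose in knock-in mice, Ppia-normalized. Values are percent of levels in PBS-treated animals.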

[5] = test system: human APOE RNA; assay: Potency (dose response, ED50) in APOE C57BL/6NTac-Apoeem7250 knock-in mice, 4 weeks (Example 14); type: in vivo; details: for ED 50 (μg) Cortex / ED 50 (μg) Spinal Cord: single ICV bolus, GraphPad Prism 10
Description: Modified oligonucleotides described above were tested in the APOE C57BL/6NTac-Apoeem7250 knock-in mouse model described above.
APOE C57BL/6NTac-Apoeem7250 knock-in mice were divided into groups of 3-4 mice each. A group of 3-4 mice received a single ICV bolus with PBS as a negative control.
Four weeks post treatment, mice were sacrificed, and RNA was extracted from cortical brain tissue and spinal cord for quantitative real-time RT-PCR analysis of RNA expression of […] using human primer probe set RTS3073 (described herein above). APOE RNA levels were normalized to mouse Ppia. Mouse Ppia was amplified using primer probe set m_cyclo24 (described herein above). Results are presented as percent human APOE RNA relative to the amount of APOE RNA in PBS treated animals, (% control). N.C. indicates values that were not calculated. Each experiment is identified in separate tables below.
The half maximal effective dose (ED50) of each modified oligonucleotide was calculated using GraphPad Prism 10 software (GraphPad Software, San Diego, CA).

Substance | APOE RNA (% UTC) ([1]; 5 nM) | APOE RNA (% UTC) ([1]; 13 nM) | APOE RNA (% UTC) ([1]; 33 nM) | APOE RNA (% UTC) ([1]; 82 nM) | APOE RNA (% UTC) ([1]; 205 nM) | APOE RNA (% UTC) ([1]; 512 nM) | APOE RNA (% UTC) ([1]; 1,280 nM) | APOE RNA (% UTC) ([1]; 3,200 nM) | APOE RNA (% UTC) ([1]; 8,000 nM) | APOE RNA (% UTC) ([1]; 20,000 nM) | IC50 [1] [nM] | APOE RNA (% UTC) ([2]; 5 nM) | APOE RNA (% UTC) ([2]; 13 nM) | APOE RNA (% UTC) ([2]; 33 nM) | APOE RNA (% UTC) ([2]; 82 nM) | APOE RNA (% UTC) ([2]; 205 nM) | APOE RNA (% UTC) ([2]; 512 nM) | APOE RNA (% UTC) ([2]; 1,280 nM) | APOE RNA (% UTC) ([2]; 3,200 nM) | APOE RNA (% UTC) ([2]; 8,000 nM) | also measured
1757575 (eA*e[5mC]eTeT*kG*kG*dT*dG[ms]dA[ms]dA[ms]dT*d[5mC]*dT*dT*dT*dA[ms]kT*eT*eA*eA; antisense) [Compound 1757575] | 92 | 96 | 93 | 81 | 72 | 47 | 34 | 27 | 10 | 5 | 570 | 44 | 56 | 39 | 50 | 34 | 30 | 26 | 23 | 12 | APOE RNA (% UTC) ([2]; 20,000 nM): 11 % UTC; IC50 [2]: 10 nM; APOE RNA (% control) Cortex [3]: 38 % control; APOE RNA (% control) Spinal Cord [3]: 27 % control; APOE RNA (% control) Cortex [4]: 35 % control; APOE RNA (% control) Spinal Cord [4]: 32 % control; APOE RNA (% control) Cortex ([5]; ICV dose 10 μg): 100 % control; APOE RNA (% control) Cortex ([5]; ICV dose 30 μg): 82 % control; APOE RNA (% control) Cortex ([5]; ICV dose 100 μg): 88 % control; APOE RNA (% control) Cortex ([5]; ICV dose 300 μg): 51 % control; APOE RNA (% control) Cortex ([5]; ICV dose 700 μg): 30 % control; ED 50 (μg) Cortex [5]: 337.5 µg; APOE RNA (% control) Spinal Cord ([5]; ICV dose 10 μg): 82 % control; APOE RNA (% control) Spinal Cord ([5]; ICV dose 30 μg): 48 % control; APOE RNA (% control) Spinal Cord ([5]; ICV dose 100 μg): 40 % control; APOE RNA (% control) Spinal Cord ([5]; ICV dose 300 μg): 28 % control; APOE RNA (% control) Spinal Cord ([5]; ICV dose 700 μg): 51 % control; ED 50 (μg) Spinal Cord [5]: 84.6 µg
1778131: modified oligonucleotide complementary to human APOE RNA (eA*e[5mC]eTeTeGkG*dT*dG[ms]dA[ms]dA*dT*d[5mC]*dT*dT*dT*dA[ms]kTkT*eA*eA; antisense) [compound 1778131] | 102 | 86 | 85 | 70 | 56 | 36 | 25 | 25 | 5 | 6 | 290 | 69 | 103 | 89 | 69 | 64 | 31 | 45 | 55 | 25 | APOE RNA (% UTC) ([2]; 20,000 nM): 12 % UTC; IC50 [2]: 690 nM; APOE RNA (% control) Cortex [3]: 29 % control; APOE RNA (% control) Spinal Cord [3]: 49 % control; APOE RNA (% control) Cortex [4]: 29 % control; APOE RNA (% control) Spinal Cord [4]: 24 % control; APOE RNA (% control) Cortex ([5]; ICV dose 10 μg): 115 % control; APOE RNA (% control) Cortex ([5]; ICV dose 30 μg): 105 % control; APOE RNA (% control) Cortex ([5]; ICV dose 100 μg): 61 % control; APOE RNA (% control) Cortex ([5]; ICV dose 300 μg): 37 % control; APOE RNA (% control) Cortex ([5]; ICV dose 700 μg): 29 % control; ED 50 (μg) Cortex [5]: 216.5 µg; APOE RNA (% control) Spinal Cord ([5]; ICV dose 10 μg): 79 % control; APOE RNA (% control) Spinal Cord ([5]; ICV dose 30 μg): 64 % control; APOE RNA (% control) Spinal Cord ([5]; ICV dose 100 μg): 36 % control; APOE RNA (% control) Spinal Cord ([5]; ICV dose 300 μg): 40 % control; APOE RNA (% control) Spinal Cord ([5]; ICV dose 700 μg): 34 % control; ED 50 (μg) Spinal Cord [5]: 94.0 µg
